Data on one compound can be found in patent publication US20080188483A1, “Compounds and Compositions as Protein Kinase Inhibitors” (IRM LLC, priority 2006, published 2008).

Assay in all cases: Upstate KinaseProfiler radio-enzymatic filter binding assay
What all share (format): biochemical

For one assay, the target named is T1, MKK6 (Homo sapiens, UniProt P52564).
T1 construct: purchased Upstate
The following applies: at a concentration of 10 μM; read-out: percentage inhibition of MKK6. As for the experimental part:
(§1) Compounds of the invention are assessed for their ability to inhibit individual members of a panel of kinases (a partial, non-limiting list of kinases includes: Abl, BMX, BTK, CHK2, c-RAF, CSK, c-SRC, Fes, FGFR3, Flt3, IKKα, IKKβ, JNK2α2, Lck, Met, MKK4, MKK6, MST2, NEK2, p70S6K, PDGFRβ, PKA, PKBα, PKD2, Rsk1, SAPK2α, SAPK2β, SAPK3, SGK, Tie2 and/or TrkB. The compounds are tested in duplicates at a final concentration of 10 μM following this generic protocol. Note that the kinase buffer composition and the substrates vary for the different kinases included in the “Upstate KinaseProfiler™” panel. Kinase buffer (2.5 μL, 10×—containing MnCl2 when required), active kinase (0.001-0.01 Units; 2.5 μL), specific or Poly(Glu4-Tyr) peptide (5-500 μM or 0.01 mg/ml) in kinase buffer and kinase buffer (50 μM; 5 μL) are mixed in an eppendorf on ice. A Mg/ATP mix (10 μL; 67.5 (or 33.75) mM MgCl2, 450 (or 225) μM ATP and 1 μCi/μl [γ-^32P]-ATP (3000 Ci/mmol)) is added and the reaction is incubated at about 30° C. for about 10 minutes. The reaction mixture is spotted (20 μL) onto a 2 cm×2 cm P81 (phosphocellulose, for positively charged peptide substrates) or Whatman No. 1 (for Poly (Glu4-Tyr) peptide substrate) paper square. The assay squares are washed 4 times, for 5 minutes each, with 0.75% phosphoric acid and washed once with acetone for 5 minutes. The assay squares are transferred to a scintillation vial, 5 ml scintillation cocktail are added and ^32P incorporation (cpm) to the peptide substrate is quantified with a Beckman scintillation counter. Percentage inhibition is calculated for each reaction.

In another assay the target is T2, FGFR3 (Homo sapiens, UniProt P22607).
T2 construct: purchased Upstate
T2 sequence (P22607 23-806): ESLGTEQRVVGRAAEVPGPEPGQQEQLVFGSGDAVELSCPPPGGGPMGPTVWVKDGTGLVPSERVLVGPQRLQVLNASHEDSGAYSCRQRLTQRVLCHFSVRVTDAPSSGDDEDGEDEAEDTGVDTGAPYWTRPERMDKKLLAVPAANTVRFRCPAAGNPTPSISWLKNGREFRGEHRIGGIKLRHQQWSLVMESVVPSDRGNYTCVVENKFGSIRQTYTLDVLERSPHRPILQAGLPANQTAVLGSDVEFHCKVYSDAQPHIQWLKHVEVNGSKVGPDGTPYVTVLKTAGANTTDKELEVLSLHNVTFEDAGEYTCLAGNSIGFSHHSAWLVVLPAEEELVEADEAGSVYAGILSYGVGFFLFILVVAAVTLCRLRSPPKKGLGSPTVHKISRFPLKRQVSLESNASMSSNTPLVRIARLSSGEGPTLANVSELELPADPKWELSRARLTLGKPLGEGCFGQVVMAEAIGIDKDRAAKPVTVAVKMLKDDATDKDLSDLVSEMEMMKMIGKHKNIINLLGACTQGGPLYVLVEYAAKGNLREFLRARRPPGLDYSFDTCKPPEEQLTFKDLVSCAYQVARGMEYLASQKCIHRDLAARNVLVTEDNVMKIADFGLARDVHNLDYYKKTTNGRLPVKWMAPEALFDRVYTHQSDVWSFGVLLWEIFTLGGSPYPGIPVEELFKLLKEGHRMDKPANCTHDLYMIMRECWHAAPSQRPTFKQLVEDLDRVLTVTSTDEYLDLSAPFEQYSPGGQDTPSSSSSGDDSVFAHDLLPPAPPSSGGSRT
The following applies: at a concentration of 10 μM; read-out: percentage inhibition of FGFR3. As for the experimental part:
as §1

The target of the next assay is T3, c-RAF (Homo sapiens, UniProt P04049).
T3 construct: purchased Upstate
The following applies: at a concentration of 10 μM; read-out: percentage inhibition of c-RAF. How it is done:
as §1

For the next assay, the target named is T4, p70S6K (Homo sapiens, UniProt P23443).
T4 construct: purchased Upstate
T4 sequence (P23443 whole entry): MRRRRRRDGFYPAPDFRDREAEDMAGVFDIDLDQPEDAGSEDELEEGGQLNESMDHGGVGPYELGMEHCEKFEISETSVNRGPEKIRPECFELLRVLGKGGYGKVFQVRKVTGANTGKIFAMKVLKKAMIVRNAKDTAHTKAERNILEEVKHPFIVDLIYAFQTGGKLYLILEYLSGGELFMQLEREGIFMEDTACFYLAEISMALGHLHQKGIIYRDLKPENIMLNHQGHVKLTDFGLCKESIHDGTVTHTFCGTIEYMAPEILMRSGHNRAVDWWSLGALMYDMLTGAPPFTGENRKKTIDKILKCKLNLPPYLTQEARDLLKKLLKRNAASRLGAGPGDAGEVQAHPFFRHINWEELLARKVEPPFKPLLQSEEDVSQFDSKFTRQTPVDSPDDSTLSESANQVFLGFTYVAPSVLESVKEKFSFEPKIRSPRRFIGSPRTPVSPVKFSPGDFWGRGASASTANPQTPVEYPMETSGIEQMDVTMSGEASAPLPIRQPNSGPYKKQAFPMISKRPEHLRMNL
The following applies: at a concentration of 10 μM; read-out: percentage inhibition of p70S6K. As for the experimental part:
as §1

Another assay deals with T5, PDGFRβ (Homo sapiens, UniProt P09619).
T5 construct: purchased Upstate
T5 sequence (P09619 33-1106): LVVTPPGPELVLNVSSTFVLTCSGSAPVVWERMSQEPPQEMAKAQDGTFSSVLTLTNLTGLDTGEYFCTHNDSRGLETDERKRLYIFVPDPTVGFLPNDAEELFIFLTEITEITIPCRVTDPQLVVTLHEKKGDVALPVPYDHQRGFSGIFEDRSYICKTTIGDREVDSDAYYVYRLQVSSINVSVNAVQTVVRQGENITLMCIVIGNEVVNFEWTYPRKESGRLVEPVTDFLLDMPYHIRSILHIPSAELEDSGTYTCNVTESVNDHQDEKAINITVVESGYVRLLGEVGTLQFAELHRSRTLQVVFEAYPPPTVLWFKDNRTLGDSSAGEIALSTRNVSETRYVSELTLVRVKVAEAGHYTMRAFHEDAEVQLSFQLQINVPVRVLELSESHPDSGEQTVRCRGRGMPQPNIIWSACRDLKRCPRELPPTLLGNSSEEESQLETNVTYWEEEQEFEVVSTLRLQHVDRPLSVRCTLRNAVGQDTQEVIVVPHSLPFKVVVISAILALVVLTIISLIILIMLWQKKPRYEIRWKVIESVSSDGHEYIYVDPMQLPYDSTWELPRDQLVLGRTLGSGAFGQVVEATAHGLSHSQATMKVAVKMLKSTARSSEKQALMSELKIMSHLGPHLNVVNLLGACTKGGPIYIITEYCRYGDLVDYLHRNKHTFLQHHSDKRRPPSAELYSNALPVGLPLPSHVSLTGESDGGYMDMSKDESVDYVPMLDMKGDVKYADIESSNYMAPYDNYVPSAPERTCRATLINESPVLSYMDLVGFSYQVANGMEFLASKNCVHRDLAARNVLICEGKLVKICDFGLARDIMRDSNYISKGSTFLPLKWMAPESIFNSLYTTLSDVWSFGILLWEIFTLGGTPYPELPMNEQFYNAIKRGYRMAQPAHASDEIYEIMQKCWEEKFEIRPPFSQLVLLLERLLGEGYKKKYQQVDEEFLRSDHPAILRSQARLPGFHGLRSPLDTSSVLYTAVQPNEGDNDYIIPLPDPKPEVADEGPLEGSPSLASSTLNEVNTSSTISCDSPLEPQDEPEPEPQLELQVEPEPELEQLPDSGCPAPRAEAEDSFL
The following applies: at a concentration of 10 μM; read-out: percentage inhibition of PDGFRβ. How it is done: as §1

A further assay concerns the target T6, Tie2 (Homo sapiens, UniProt Q02763).
T6 construct: purchased Upstate
Particulars: at a concentration of 10 μM; read-out: percentage inhibition of Tie2. As for the experimental part:
as §1

Another assay addresses T7, Lck (Homo sapiens, UniProt P06239).
T7 construct: purchased Upstate
The following applies: at a concentration of 10 μM; read-out: percentage inhibition of Lck. As for the experimental part:
as §1

For another assay, the target named is T8, BMX (Homo sapiens, UniProt P51813).
T8 construct: purchased Upstate
The following applies: at a concentration of 10 μM; read-out: percentage inhibition of BMX. As for the experimental part: as §1

The target in another assay is T9, Rsk1 (Homo sapiens, UniProt Q15418).
T9 construct: purchased Upstate
Particulars: at a concentration of 10 μM; read-out: percentage inhibition of Rsk1. As for the experimental part:
as §1

A further assay deals with T10, c-SRC (Homo sapiens, UniProt P12931).
T10 construct: purchased Upstate
The following applies: at a concentration of 10 μM; read-out: percentage inhibition of c-SRC. How it is done:
as §1

For a further assay, the target named is T11, CSK (Homo sapiens, UniProt P41240).
T11 construct: purchased Upstate
Particulars: at a concentration of 10 μM; read-out: percentage inhibition of CSK. As for the experimental part: as §1

Another assay addresses T12, Abl (Homo sapiens, UniProt P00519).
T12 construct: purchased Upstate
The following applies: at a concentration of 10 μM; read-out: percentage inhibition of Abl. As for the experimental part: as §1

In a further assay the target is T13, TrkB (Homo sapiens, UniProt Q16620).
T13 construct: purchased Upstate
T13 sequence (Q16620 32-822): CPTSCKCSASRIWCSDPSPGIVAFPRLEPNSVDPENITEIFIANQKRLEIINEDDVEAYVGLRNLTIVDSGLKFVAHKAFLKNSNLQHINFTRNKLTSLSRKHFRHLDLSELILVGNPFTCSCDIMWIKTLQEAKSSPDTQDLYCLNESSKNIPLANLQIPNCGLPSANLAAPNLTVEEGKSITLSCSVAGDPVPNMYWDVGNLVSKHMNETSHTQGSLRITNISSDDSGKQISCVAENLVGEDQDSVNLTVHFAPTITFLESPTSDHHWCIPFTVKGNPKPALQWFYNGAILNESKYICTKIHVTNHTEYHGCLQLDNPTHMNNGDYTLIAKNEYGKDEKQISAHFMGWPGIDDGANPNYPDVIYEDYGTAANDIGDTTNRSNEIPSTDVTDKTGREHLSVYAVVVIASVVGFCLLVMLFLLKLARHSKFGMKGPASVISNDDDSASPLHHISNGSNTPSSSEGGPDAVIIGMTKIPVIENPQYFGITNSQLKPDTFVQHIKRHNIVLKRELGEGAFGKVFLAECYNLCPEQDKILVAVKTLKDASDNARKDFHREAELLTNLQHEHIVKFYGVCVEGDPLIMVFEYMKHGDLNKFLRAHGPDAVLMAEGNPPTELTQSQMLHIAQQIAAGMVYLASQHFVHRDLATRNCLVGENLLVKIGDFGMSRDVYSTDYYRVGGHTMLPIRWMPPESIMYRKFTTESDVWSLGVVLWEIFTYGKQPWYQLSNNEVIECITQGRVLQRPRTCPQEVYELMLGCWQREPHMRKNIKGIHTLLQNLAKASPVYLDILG
The following applies: at a concentration of 10 μM; read-out: percentage inhibition of TrkB. As for the experimental part: as §1

The target of a further assay is T14, SAPK2α (Homo sapiens, UniProt Q16539).
T14 construct: purchased Upstate
T14 sequence (Q16539 whole entry): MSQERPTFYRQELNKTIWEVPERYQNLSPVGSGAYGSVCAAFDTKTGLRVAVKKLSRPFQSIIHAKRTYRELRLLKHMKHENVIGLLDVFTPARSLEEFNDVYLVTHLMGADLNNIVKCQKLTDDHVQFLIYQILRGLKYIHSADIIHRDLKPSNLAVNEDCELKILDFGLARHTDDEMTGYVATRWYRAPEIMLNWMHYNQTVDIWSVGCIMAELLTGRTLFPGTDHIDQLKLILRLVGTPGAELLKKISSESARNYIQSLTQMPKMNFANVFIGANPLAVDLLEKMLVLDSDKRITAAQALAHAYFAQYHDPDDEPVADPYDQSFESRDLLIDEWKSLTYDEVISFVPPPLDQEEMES
The following applies: at a concentration of 10 μM; read-out: percentage inhibition of SAPK2α. As for the experimental part: as §1

The next assay addresses T15, Fes (Homo sapiens, UniProt P07332).
T15 construct: purchased Upstate
The following applies: at a concentration of 10 μM; read-out: percentage inhibition of Fes. How it is done: as §1

A further assay concerns the target T16, BTK (Homo sapiens, UniProt Q06187).
T16 construct: purchased Upstate
The following applies: at a concentration of 10 μM; read-out: percentage inhibition of BTK. How it is done: as §1

A further assay deals with Bcr-Abl. Particulars: at a concentration of 10 μM. As for the experimental part: as §1

A word on the inhibition: it is the change of the read-out against control, counted positive when it falls.

T1 sequence (P52564 whole entry): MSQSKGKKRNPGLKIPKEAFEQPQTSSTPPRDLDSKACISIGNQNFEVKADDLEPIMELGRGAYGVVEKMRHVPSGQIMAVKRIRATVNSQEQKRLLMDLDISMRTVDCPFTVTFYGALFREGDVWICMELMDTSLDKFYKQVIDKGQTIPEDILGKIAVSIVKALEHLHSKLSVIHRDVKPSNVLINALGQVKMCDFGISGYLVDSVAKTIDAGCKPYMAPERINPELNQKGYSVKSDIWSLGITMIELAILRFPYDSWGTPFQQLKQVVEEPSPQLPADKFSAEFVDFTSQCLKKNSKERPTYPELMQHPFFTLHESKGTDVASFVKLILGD
T12 sequence (P00519 whole entry, species assumed): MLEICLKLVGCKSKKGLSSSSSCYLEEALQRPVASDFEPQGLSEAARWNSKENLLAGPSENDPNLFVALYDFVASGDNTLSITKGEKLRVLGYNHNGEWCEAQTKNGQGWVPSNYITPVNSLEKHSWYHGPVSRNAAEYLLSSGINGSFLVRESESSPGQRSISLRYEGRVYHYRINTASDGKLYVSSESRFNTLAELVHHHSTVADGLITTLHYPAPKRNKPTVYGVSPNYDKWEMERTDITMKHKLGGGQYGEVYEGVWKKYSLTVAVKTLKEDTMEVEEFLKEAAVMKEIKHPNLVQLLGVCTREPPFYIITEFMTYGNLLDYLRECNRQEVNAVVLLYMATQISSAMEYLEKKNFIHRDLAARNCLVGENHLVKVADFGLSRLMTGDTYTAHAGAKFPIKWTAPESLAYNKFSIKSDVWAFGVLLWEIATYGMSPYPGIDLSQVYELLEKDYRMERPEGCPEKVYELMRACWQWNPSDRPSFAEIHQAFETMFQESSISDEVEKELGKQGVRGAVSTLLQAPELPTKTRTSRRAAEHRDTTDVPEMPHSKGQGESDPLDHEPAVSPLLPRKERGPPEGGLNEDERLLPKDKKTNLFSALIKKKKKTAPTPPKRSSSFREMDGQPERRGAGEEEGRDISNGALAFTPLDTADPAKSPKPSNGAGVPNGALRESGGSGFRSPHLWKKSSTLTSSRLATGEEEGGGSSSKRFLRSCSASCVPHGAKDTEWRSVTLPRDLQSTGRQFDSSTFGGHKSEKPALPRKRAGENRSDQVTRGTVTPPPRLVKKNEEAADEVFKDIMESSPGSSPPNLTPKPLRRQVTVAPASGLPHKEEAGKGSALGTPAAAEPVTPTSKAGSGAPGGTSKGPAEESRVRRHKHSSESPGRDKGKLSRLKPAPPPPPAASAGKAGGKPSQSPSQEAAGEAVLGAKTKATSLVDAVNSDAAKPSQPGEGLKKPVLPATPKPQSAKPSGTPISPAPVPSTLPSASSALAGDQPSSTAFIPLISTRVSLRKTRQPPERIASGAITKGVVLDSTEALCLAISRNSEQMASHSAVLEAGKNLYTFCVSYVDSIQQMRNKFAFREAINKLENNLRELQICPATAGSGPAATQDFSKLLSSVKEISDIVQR

On to `Cc1cn(-c2cc(C(=O)Nc3ccc(C)c(Nc4nccn4-c4ncnc5[nH]ccc45)c3)cc(C(F)(F)F)c2)cn1` [Example 2, 3-(4-methyl-imidazol-1-yl)-N-{4-methyl-3-[1-(7H-pyrrolo[2,3-d]pyrimidin-4-yl)-1H-imidazol-2-ylamino]-phenyl}-5-trifluoromethyl-benzamide], for which the inhibition at 10 µM on MKK6 amounted to 99%; at FGFR3, 89%; at c-RAF, 98%; at p70S6K, 86%; on PDGFRβ, 83%; on Tie2, 99%. For the same compound, the inhibition at 10 µM on Lck stood at 99%; at BMX it was 99%; on Rsk1, 88%; on c-SRC, 100%; on CSK, 97%; on Abl, 99%. Further, the inhibition at 10 µM on TrkB worked out at 100%; on SAPK2α it was 97%; at Fes, 71%; at BTK, 99%. Also, in the assay with Bcr-Abl, the “percentage inhibition of Bcr-Abl” value was 99%.
